Test results: patent US7033784B1, “Method of producing an erythroid cell which is undifferentiated yet capable of expressing a heterologous protein” (Syngenta Limited, priority 1999, dated 2006)

Tests used:
[1] = molecular target: T1, Locusta migratoria tyramine receptor (TyrLoc) (Locusta migratoria, UniProt Q25321); test: Ca2+ measurements (fura-2) in uninduced MEL-TyrLoc cells; format: cell-based; conditions: for antagonism of the Ca2+ increase induced by TA: qualitative, data not shown for part
T1 construct: The coding region of the TyrLoc cDNA was amplified by polymerase chain reaction (PCR) from pVJ12 and pVJ12-IEG; expressed in transfected cells
T1 sequence (Q25321 12-484): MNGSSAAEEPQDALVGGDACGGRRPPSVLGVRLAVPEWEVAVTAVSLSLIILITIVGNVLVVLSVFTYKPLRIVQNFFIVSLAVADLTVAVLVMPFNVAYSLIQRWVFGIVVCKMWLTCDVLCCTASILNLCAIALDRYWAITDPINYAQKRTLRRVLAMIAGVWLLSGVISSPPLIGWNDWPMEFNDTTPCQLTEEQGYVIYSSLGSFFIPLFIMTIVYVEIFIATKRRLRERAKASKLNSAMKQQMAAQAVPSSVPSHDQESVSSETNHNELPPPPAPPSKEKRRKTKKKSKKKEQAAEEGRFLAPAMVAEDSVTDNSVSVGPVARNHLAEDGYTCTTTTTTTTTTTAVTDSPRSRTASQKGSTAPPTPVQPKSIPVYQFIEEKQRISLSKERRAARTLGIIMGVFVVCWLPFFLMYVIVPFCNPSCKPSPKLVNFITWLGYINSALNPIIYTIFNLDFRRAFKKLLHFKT
Method: (§1) Elevations in intracellular Ca^2+ in response to stimulation with ligands of the tyramine receptor were measured as follows. Since MEL cells loose the ability to signal on differentiation, and as receptor expression was readily detectable without induction of the MEL cells, uninduced MEL C88L cells of the invention were used.
(§2) Ca^2+ concentration was measured by using the acetoxymethyl (AM) ester of the fluorescent indicator fura-2 (Grynkiewicz G et al. (1985) J. Biol. Chem. 260 3440–3450). Cells were washed with NCF buffer (135 mM NaCl, 5 mM KCl, 6 mM glucose, 0.62 mM MgCl2.6H2O, 10 mM HEPES, pH 7.4 with 4 mM CaCl2) and resuspended at a concentration of 2.10^6 cells/ml in NCF buffer containing 2 μM fura-2-AM (Molecular Probes). After 1 hour incubation in the dark at 27° C., the cell suspension was subjected to centrifugation at 1200 rpm for 5 minutes, resuspended in an equal volume of NCF buffer and incubated for an additional 30 min in the dark. Aliquots were centrifuged as above and resuspended in 3 ml NCF buffer. Measurements of intracellular calcium were made fluorimetrically in a LS-50B Luminescence Spectrophotometer (Perkin-Elmer) in the presence and absence of the appropriate test chemical. Excitation wavelength alternated between 340 and 380 nm. The fluorescence intensity was monitored at an emission wavelength of 510 nm.

[2] = molecular target: T1, Locusta migratoria tyramine receptor (TyrLoc); test: cAMP measurements (Scintillation Proximity Assay) in MEL-TyrLoc cells; format: cell-based; conditions: for antagonism of the effect of TA on cAMP: 10 μM Fsk + 0.1 μM TA, yohimbine 100 nM to 1 nM, mianserin 10 nM, chlorpromazine 10 nM; for inhibition of forskolin-induced increase of cAMP: 10 μM Fsk + 1 nM to 10 μM TA, FIG. 6
Method: (§3) The effect of TA on the cAMP level of the transformed and untransformed cells was investigated. MEL-C88L and MEL-TyrLoc cells were seeded in 6-well plates to a density of 8.10^5 cells/well and allowed to attach. The cell medium was removed and, in different wells, replaced with different NCF buffer solutions as follows: • (i) NCF+1 μM tyramine (TA), • (ii) NCF+10 μM forskolin (Fsk), • (iii) NCF+10 μM Fsk+1 nM to 10 μM TA. where NCF comprised 135 mM NaCl, 5 mM KCl, 6 mM glucose, 0.62 mM MgCl2, 10 mM Hepes pH 7.4 4 mM CaCl2.
For the use of other ligands than TA, the solutions were: • (iv) NCF+10 μM Fsk+1 μM OA, • (v) NCF+10 μM Fsk+0.1 μM TA+100 nM to 1 nM yohimbine, • (vi) NCF+10 μM Fsk+0.1 μM TA+10 nM mianserin; and • (vii) NCF+10 μM Fsk+0.1 μM TA+10 nM chlorpromazine.
(§4) All solutions contained 200 μM […] (IBMX) in order to inhibit cAMP phosphodiesterase. In each study, triplicate wells were incubated with the same solution at 37° C. for exactly 30 min.
(§5) In order to extract the cAMP, 100% ice-cold ethanol was added to each well to a final concentration of 65%. After 5 min incubation at room temperature, the solution was removed from the wells which were then rinsed with 65% ethanol. The eluates from the same well were then pooled together and evaporated using a speedvac. cAMP was then measured using the Scintillation Proximity Assay (Amersham), according to the manufacturers recommended procedure. This experiment was done in triplicate.

[3] = system: serotonin receptor; test: β-galactosidase (CRE reporter) assay using serotonin clones of MEL C88L cells
Method: (§6) These cells were then transferred to 96-well microtitre plates a final concentrations of 2×10^5 cells/well and 1×10^6 cells/well. […] 2 replicates/clone/concentrations were set up.
(§7) After incubation for 5 hours at 37° C. in an atmosphere of 10% CO2, a chlorophenol red β-D-galactopyranoside (CPRG) solution was added. The solution comprised 11.4 mg CPRG (Boehringer), 500 μl 10× Z buffer, 75 μl 20% SDS, 5 ml H2O and 7 μl ercaptoethanol. 10× Z buffer consists of 0.47M Na2HPO4(2H2O), 0.4M NaH2PO4(2H2O), 0.1M KCI, 10 mM MgSO4(7H2O), adjusted to pH 7.0 with NaOH solution.

[4] = system: Untransformed MEL-C88L cells; test: Ca2+ measurements (fura-2) in untransformed MEL-C88L control cells; format: cell-based, Murine; conditions: concentrations as high as 100 μM TA
Method: as §1, §2

[5] = system: Untransformed MEL-C88L cells; test: cAMP measurements (Scintillation Proximity Assay) in untransformed MEL-C88L cells; format: cell-based, Murine; conditions: 200 μM IBMX, FIG. 5
Method: as §3, §4, §5

[6] = molecular target: Dopamine Receptor (D-Dop1) (Drosophila melanogaster, UniProt P41596); conditions: 10 μM dopamine, Clones C and 2, 1×10^6 cells/well, FIG. 7
Sequence of Dopamine Receptor (D-Dop1) (P41596 20-511): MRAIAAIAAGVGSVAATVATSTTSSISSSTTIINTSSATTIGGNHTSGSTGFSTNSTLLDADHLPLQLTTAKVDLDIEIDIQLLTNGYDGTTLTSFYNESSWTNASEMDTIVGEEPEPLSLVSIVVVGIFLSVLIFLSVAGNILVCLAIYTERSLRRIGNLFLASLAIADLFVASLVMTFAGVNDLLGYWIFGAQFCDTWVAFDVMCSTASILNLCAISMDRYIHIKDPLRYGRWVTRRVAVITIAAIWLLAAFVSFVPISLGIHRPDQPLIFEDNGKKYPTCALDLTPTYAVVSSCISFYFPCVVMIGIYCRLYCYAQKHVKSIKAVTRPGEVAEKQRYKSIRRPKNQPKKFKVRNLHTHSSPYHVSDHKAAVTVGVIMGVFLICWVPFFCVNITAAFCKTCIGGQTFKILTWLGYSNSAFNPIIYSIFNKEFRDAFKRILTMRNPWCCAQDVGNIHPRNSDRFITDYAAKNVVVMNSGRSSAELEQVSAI
Method: as §6, §7

[7] = yohimbine 0.1, 1 and 2.5 μM, FIG. 4

## CN(C)CCCN1c2ccccc2Sc2ccc(Cl)cc21 [Chlorpromazine]
[1]
  antagonism of the Ca2+ increase induced by TA: clearly inhibited
[2]
  antagonism of the effect of TA on cAMP: antagonistic effects

## c1ccc2c(CC3=NCCN3)cccc2c1 [naphazoline]
[1]
  antagonism of the Ca2+ increase induced by TA: weak antagonists

## NCC(O)c1ccc(O)cc1 (centres unmarked) [OA, octopamine]
[1]; OA 0.5 μM versus TA 10 nM (50 times higher concentration), FIG. 3
  Ca2+ increase compared with TA: much lesser extent than TA

## NCCc1c[nH]c2ccc(O)cc12 [serotonin]
[3]; forskolin and serotonin
  forskolin stimulated cAMP in the presence of serotonin: decrease in forskolin stimulated cAMP
[3]; serotonin alone
  cyclic AMP signal with serotonin alone: no effect

## NCCc1ccc(O)cc1 [TA, tyramine]
[1]; MEL-TyrLoc clone, FIG. 2
  TA concentration giving maximal Ca2+ response: 1 µM
[1]; MEL-TyrLoc clone, dose-response 0.01 μM upwards, FIG. 2
  Ca2+ increase after addition of TA: clear transient increase in Ca^2+
[1]; TA versus OA as agonist of TyrLoc in MEL-TyrLoc cells (summary of Ca2+ and cAMP results)
  activating concentrations lower than OA: 3–4 orders of magnitude
[4]
  Ca2+ response in untransformed cells: no response
[2]; 200 μM IBMX
  inhibition of forskolin-induced increase of cAMP: significantly inhibits
[2]; 200 μM IBMX, listed as tyramine
  inhibition of forskolin-induced increase of cAMP: inhibition
[2]; 10 μM Fsk, 200 μM IBMX
  TA concentration giving maximal response (cAMP inhibition): 1 µM
  TA concentration giving minimal response (cAMP inhibition): 1 nM
  decrease in cAMP production with 1 μM TA when compared to 1 μM OA: 4 fold
[5]; 1 μM TA, 30 min
  effect on cAMP level in untransformed cells: did not result in any effect

## CCN(CC)CCNC(=O)c1cc(Cl)c(N)cc1OC [metaclopramide]
[1]; at concentrations below 20 μM
  effect on basal Ca2+ concentrations or on the response of the cells to TA: no detectable effect

## C[C@H](CCC(=O)O)C[C@H](C)C[C@H](C)C(=O)/C=C(\O)[C@H](C)C[C@H](C)C/C=C/[C@@H](C)[C@@H](O)[C@@H](C)[C@@H](O)C[C@@H]1CC[C@@](C)([C@H]2CC[C@@](C)([C@@H](C)O)O2)O1 [ionomycin]
[1]; 2 μM ionomycin, check of fura-2 loading
  intracellular Ca2+ concentration after ionophore: large increase

## c1ccc(CC2=NCCN2)cc1 [tolazoline]
[1]
  antagonism of the Ca2+ increase induced by TA: weak antagonists

## COC(=O)[C@@H]1[C@H]2C[C@H]3c4[nH]c5ccccc5c4CCN3C[C@@H]2CC[C@@H]1O [Yohimbine]
[1]
  antagonism of the Ca2+ increase induced by TA: strongest antagonist
[1]; listed as yohimbine
  antagonism of the Ca2+ increase induced by TA: better receptor antagonist than chlorpromazine and mianserin
[1]; [7]
  inhibition of the Ca2+ response to 0.5 μM TA: concentration-dependent inhibition
  inhibition of the Ca2+ response to 5 μM TA: could not inhibit
[1]; yohimbine 0.1, 1 and 2.5 μM, FIG. 4, listed as yohimbin
  inhibition of the Ca2+ response to 0.5 μM TA: inhibition
[2]
  antagonism of the effect of TA on cAMP: inhibited the effect of TA in a dose dependent manner

## C=C[C@@]1(C)CC(=O)[C@]2(O)[C@@]3(C)[C@@H](O)CCC(C)(C)[C@@H]3[C@H](O)[C@H](OC(C)=O)[C@@]2(C)O1 [Forskolin, forskolin]
[5]; 10 μM forskolin with or without TA
  increase of cAMP level: more than 6 times

## NCCc1ccc(O)c(O)c1 [dopamine]
[6]
  absorbance at 570 nm (β-galactosidase, indicating cyclic AMP) with dopamine: increase in absorbance at 570 nm

## CN1CCN2c3ccccc3Cc3ccccc3C2C1 (centres unmarked) [mianserin]
[1]
  antagonism of the Ca2+ increase induced by TA: clearly inhibited
[2]
  antagonism of the effect of TA on cAMP: antagonistic effects
